Experiments:
Format in all cases: in vivo
mice = experiment: Toxicity after intraperitoneal injection of very high doses; conditions: 160 mg/kg body weight by intraperitoneal injection
hamster cheek pouch = experiment: Vascular permeability and bleeding induced by histamine in the hamster cheek pouch; conditions: 80 min period
Description: Vascular permeability and bleeding induced by histamine in the hamster cheek pouch was determined in the presence of D-myo-inositol-1.2.6-trisphosphate (IP₃) compared to control. Male hamsters were fasted overnight and anaesthetised with sodium pentobarbitone. Infusion was performed through the jugular vein. Injection of histamine (2.7 mg/kg) was preceded by either saline (control) or IP₃ (5.0 mg/kg).

[1] = system: shaved dorsal skin of rabbits; experiment: Local oedema formation in rabbit dorsal skin in response to mediators of increased microvascular permeability, Evans Blue; conditions: 50 mg/kg directly after injection of the mediators
Description: Local oedema formation is measured in the shaved dorsal skin of rabbits in response to mediators of increased microvascular permeability, such as histamine, bradykinin and platelet activating factor (PAF). When a vasodilator such as calcitonin gene-related peptide (CGRP) is administered together with the mediators the blood flow is increased and this system is established for testing compounds that reduces oedema formation.
Prior to injection of the different mediators Evans Blue is injected into the anaesthetized animals. The distribution of Evans Blue is a measurement of the tissue damage and oedema formation. Directly after injection of the mediators either saline (control) or 50 mg/kg of D-myo-inositol-1.2.6-trisphos phate (IP₃) are performed.
The results are shown below as per cent inhibition of IP₃ compared to control.

skin of the abdomen = experiment: Controlled burn damage in rats, albumin leakage measured with Evans Blue; conditions: n=10, 10 mg/kg injection 15 minutes after the burn, then infusion of 0.2 mg/min for 2 hours
Description: A controlled burn damage is induced in rats as a heat probe is applied to the skin of the abdomen with a constant pressure. The probe has a surface temperature of […] and is allowed to deliver a specific amount of energy until the temperature is lowered to 37°C. 15 minutes after the induction of the burn an injection of saline (control) or D-myo-inositol-1.2.6-trisphosphate (IP₃) was performed. After this first injection (10 mg/kg IP₃) an infusion of 0.2 mg/min IP₃ followed for 2 hours. 90 minutes after the damage Evans Blue is injected to the animals. This compound binds to albumin, which leaks into the damaged tissue. The amount of albumin leakage is then easily determined by measuring the intensity of colour of Evans Blue in different parts of the tissue. After another 30 minutes the animals are killed and the tissue damage is determined. […] Thus IP₃ is an protective substance against tissue damage caused by burns.

rat hind-paw = experiment: Carrageenan-induced oedema of the rat hind-paw; conditions: male rats, 1000 mg/kg injected 2 hours and 1 hour before carrageenan; four hours after induction of the damage
Description: Injection of carrageenan into the subplanar surface of the rat hind-paw induces a tissue damage that results in pronounced oedema. The degree of oedema can be reproducibly quantified by measuring paw circumference.
Two groups of five male rats were injected 2 hours and 1 hour before injection of carrageenan with 1000 mg/kg D-myo-inositol-1.2.6-trisphosphate (IP₃) or Krebs ringer solution (control) respectively.
Measurement of the paw diameter was made at hourly intervals.

How did the toxic effects (mice) turn out when `O=P(O)(O)OC1[C@H](OP(=O)(O)O)[C@H](O)C(O)[C@H](O)[C@H]1OP(=O)(O)O` (stereo partly drawn) [IP₃, D-myo-inositol-1.2.6-trisphosphate] was run?
The toxic effects was “no toxic effects”.

And the “% inhibition” value (hamster cheek pouch; inhibition of petechiae versus saline control, histamine 2.7 mg/kg, IP₃ 5.0 mg/kg)?
The value was 88%.

What about the number of petechiae (hamster cheek pouch; male hamsters, histamine 2.7 mg/kg preceded by IP₃ 5.0 mg/kg, infusion through jugular vein) of the same molecule?
Its number of petechiae is 1.0.

What about the “% inhibition with IP₃ compared to control” value (“% inhibition with IP₃” below) ([1]; mediator Bradykinin) of the same molecule?
Its value is 64%.

What about the “% inhibition with IP₃” value ([1]; mediator Histamine) of the same molecule?
The value was 61%.

What about the “% inhibition with IP₃” value ([1]; mediator PAF) of the same molecule?
The value was 64%.

And the “burn damage compared to control” value (skin of the abdomen)?
Its value is “significantly reduced”.

And the “reduces the oedema as compared to control” value (rat hind-paw)?
The value was 40%.

From patent EP0359256A2, “The use of inositoltrisphosphate in the treatment of tissue damage” (PERSTORP AB, priority 1988, dated 1990)
